{
  "source": "patent US8729082B2",
  "about": "“Substituted imidazoquinoxalines” (Bayer Intellectual Property GmbH, priority 2009, dated 2014)",
  "data": [
    {"target": "T1, human kinase Mps-1 (Homo sapiens, UniProt P33981)", "T1 construct": "N-terminally GST-tagged human full length recombinant Mps-1 kinase; purchased Invitrogen, Karslruhe, Germany PV4071", "T1 sequence (P33981 1-857)": "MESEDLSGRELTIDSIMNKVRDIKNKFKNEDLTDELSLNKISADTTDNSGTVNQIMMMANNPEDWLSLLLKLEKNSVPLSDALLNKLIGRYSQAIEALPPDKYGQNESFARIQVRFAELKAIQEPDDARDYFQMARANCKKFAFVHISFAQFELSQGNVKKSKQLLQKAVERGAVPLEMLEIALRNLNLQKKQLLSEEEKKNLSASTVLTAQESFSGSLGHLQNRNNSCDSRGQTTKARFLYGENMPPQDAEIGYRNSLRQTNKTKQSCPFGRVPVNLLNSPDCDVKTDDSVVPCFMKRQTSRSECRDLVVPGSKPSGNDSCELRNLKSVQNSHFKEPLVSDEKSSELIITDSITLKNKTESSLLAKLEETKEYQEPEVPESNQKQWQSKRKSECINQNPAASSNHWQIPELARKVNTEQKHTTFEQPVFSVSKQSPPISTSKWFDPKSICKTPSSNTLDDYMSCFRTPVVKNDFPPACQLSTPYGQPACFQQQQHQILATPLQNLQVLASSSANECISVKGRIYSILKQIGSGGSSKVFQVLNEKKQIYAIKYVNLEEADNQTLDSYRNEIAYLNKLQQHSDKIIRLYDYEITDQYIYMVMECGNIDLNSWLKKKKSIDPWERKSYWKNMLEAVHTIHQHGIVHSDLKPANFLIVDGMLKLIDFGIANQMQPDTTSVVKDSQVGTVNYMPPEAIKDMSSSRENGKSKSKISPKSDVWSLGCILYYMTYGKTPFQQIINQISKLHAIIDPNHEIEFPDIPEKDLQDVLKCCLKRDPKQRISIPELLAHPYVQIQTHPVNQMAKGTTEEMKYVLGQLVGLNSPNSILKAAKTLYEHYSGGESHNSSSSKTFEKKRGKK", "assay": "Mps-1 kinase assay (HTRF)", "type": "biochemical", "details": "lowATP; mean; read-out: Mps1 lowATP mean IC50", "description": "The human kinase Mps-1 phosphorylates a biotinylated substrate peptide. Detection of the phosphorylated product is achieved by homogenous time-resolved fluorescence resonance energy transfer (HTRF) from Europium-labelled anti-phospho-Serine/Threonine antibody as donor to streptavidin labelled with cross-linked allophycocyanin (SA-XLent) as acceptor. Compounds are tested for their inhibition of the kinase activity.\nN-terminally GST-tagged human full length recombinant Mps-1 kinase (purchased from Invitrogen, Karslruhe, Germany, cat. no PV4071) was used. As substrate for the kinase reaction a biotinylated peptide of the amino-acid sequence PWDPDDADITEILG (C-terminus in amide form, purchased from Biosynthan GmbH, Berlin) was used.\nFor the assay 50 nl of a 100-fold concentrated solution of the test compound in DMSO was pipetted into a black low volume 384 well microtiter plate (Greiner Bio-One, Frickenhausen, Germany), 2 μl of a solution of Mps-1 in assay buffer [0.1 mM sodium-ortho-vanadate, 10 mM MgCl2, 2 mM DTT, 25 mM Hepes pH 7.7, 0.05% BSA, 0.001% Pluronic F-127] were added and the mixture was incubated for 15 min at 22° C. to allow pre-binding of the test compounds to Mps-1 before the start of the kinase reaction. Then the kinase reaction was started by the addition of 3 μl of a solution of 16.7 μM ATP and 1.67 μM peptide in assay buffer and the resulting mixture was incubated for a reaction time of 60 min at 22° C. The concentration of Mps-1 in the assay was adjusted to the activity of the enzyme lot and was chosen appropriate to have the assay in the linear range, typical enzyme concentrations were in the range of about 1 nM (final conc. in the 5 μl assay volume). The reaction was stopped by the addition of 3 μl of a solution of HTRF detection reagents (100 mM Hepes pH 7.4, 0.1% BSA, 40 mM EDTA, 140 nM Streptavidin-XLent [#61GSTXLB, Fa. Cis Biointernational, Marcoule, France], 1.5 nM anti-phospho(Ser/Thr)-Europium-antibody [#AD0180, PerkinElmer LAS, Rodgau-Jügesheim, Germany].\nThe resulting mixture was incubated 1 h at 22° C. to allow the binding of the phosphorylated peptide to the anti-phospho(Ser/Thr)-Europium-antibody. Subsequently the amount of phosphorylated substrate was evaluated by measurement of the resonance energy transfer from the Europium-labelled anti-phospho(Ser/Thr) antibody to the Streptavidin-XLent. Therefore, the fluorescence emissions at 620 nm and 665 nm after excitation at 350 nm was measured in a HTRF reader, e.g. a Rubystar (BMG Labtechnologies, Offenburg, Germany) or a Viewlux (PerkinElmer LAS, Rodgau-Jügesheim, Germany). The ratio of the emissions at 665 nm and at […] was taken as the measure for the amount of phosphorylated substrate. The data were normalised (enzyme reaction without inhibitor=0% inhibition, all other assay components but no enzyme=100% inhibition).", "units": {"IC50": "µM"}, "values": [
      {"smiles": "O=C(NC1CC1)c1ccc(-c2cnc3c(NC[C@@H](O)CO)nc4ccc(F)cc4n23)cc1Cl", "note": "(stereo in doubt) [Example 2-87, 2-chloro-N-cyclopropyl-4-{4-[(2,3-dihydroxypropyl)amino]-8-fluoroimidazo[1,2-a]quinoxalin-1-yl}benzamide]", "IC50": 12.2},
      {"smiles": "Cc1cc2nc(NC[C@@H](O)CO)c3ncc(-c4ccc(C(=O)NC5CC5)cc4)n3c2cc1C", "note": "(stereo in doubt) [Example 2-158, N-cyclopropyl-4-{4-[(2,3-dihydroxypropyl)amino]-7,8-dimethylimidazo[1,2-a]quinoxalin-1-yl}benzamide]", "IC50": 0.0124},
      {"smiles": "CC(C)CNc1nc2ccccc2n2c(-c3ccc(NC(=O)Nc4ccc(CN5CCN(C)CC5)c(C(F)(F)F)c4)cc3)cnc12", "note": "[Example 1-1, 1-[4-(4-isobutylamino-imidazo[1,2-a]quinoxalin-1-yl)-phenyl]-3-[4-(4-methyl-piperazin-1-ylmethyl)-3-trifluoromethyl-phenyl]-urea]", "IC50": 0.0559},
      {"smiles": "CC(C)CNc1nc2ccccc2n2c(-c3ccc(C(=O)NC4CC4)cc3)cnc12", "note": "[Example 1-2, N-cyclopropyl-4-(4-isobutylamino-imidazo[1,2-a]quinoxalin-1-yl)-benzamide]", "IC50": 0.0124},
      {"smiles": "CCNC(=O)Nc1ccc(-c2cnc3c(NCC(C)C)nc4ccccc4n23)cc1", "note": "[Example 1-3, 1-ethyl-3-[4-(4-isobutylamino-imidazo[1,2-a]quinoxalin-1-yl)-phenyl]-urea]", "IC50": 20},
      {"smiles": "CC(C)CNc1nc2ccccc2n2c(-c3ccc4c(c3)OCCO4)cnc12", "note": "[Example 1-4, 1-(2,3-dihydro-1,4-benzodioxin-6-yl)-N-(2-methylpropyl)imidazo[1,2-a]quinoxalin-4-amine]", "IC50": 2.86},
      {"smiles": "CC(C)CNc1nc2ccccc2n2c(-c3ccc(C(=O)O)cc3)cnc12", "note": "[Example 1-5, 4-{4-[(2-methylpropyl)amino]imidazo[1,2-a]quinoxalin-1-yl}benzoic acid]", "IC50": 11.9},
      {"smiles": "CC(C)CNc1nc2ccccc2n2c(-c3ccccc3)cnc12", "note": "[Example 1-6, N-(2-methylpropyl)-1-phenylimidazo[1,2-a]quinoxalin-4-amine]", "IC50": 8.18},
      {"smiles": "Cc1ccc(-c2cnc3c(NCC(C)C)nc4ccccc4n23)cc1", "note": "[Example 1-7, 1-(4-methylphenyl)-N-(2-methylpropyl)imidazo[1,2-a]quinoxalin-4-amine]", "IC50": 5.36},
      {"smiles": "COc1cccc(-c2cnc3c(NCC(C)C)nc4ccccc4n23)c1F", "note": "[Example 1-8, 1-(2-fluoro-3-methoxyphenyl)-N-(2-methylpropyl)imidazo[1,2-a]quinoxalin-4-amine]", "IC50": 17.3},
      {"smiles": "CC(C)CNc1nc2ccccc2n2c(-c3ccc(C(=O)N(C)C)cc3)cnc12", "note": "[Example 1-9, N,N-dimethyl-4-{4-[(2-methylpropyl)amino]imidazo[1,2-a]quinoxalin-1-yl}benzamide]", "IC50": 15.2},
      {"smiles": "CSc1ccc(-c2cnc3c(NCC(C)C)nc4ccccc4n23)cc1", "note": "[Example 1-10, N-(2-methylpropyl)-1-[4-(methylsulfanyl)phenyl]imidazo[1,2-a]quinoxalin-4-amine]", "IC50": 3.34},
      {"smiles": "Cc1ccccc1-c1cnc2c(NCC(C)C)nc3ccccc3n12", "note": "[Example 1-11, 1-(2-methylphenyl)-N-(2-methylpropyl)imidazo[1,2-a]quinoxalin-4-amine]", "IC50": 13.9},
      {"smiles": "COc1ncc(-c2cnc3c(NCC(C)C)nc4ccccc4n23)cn1", "note": "[Example 1-12, 1-(2-methoxypyrimidin-5-yl)-N-(2-methylpropyl)imidazo[1,2-a]quinoxalin-4-amine]", "IC50": 5.54},
      {"smiles": "CC(C)CNc1nc2ccccc2n2c(-c3ccc4cc[nH]c4c3)cnc12", "note": "[Example 1-13, 1-(1H-indol-6-yl)-N-(2-methylpropyl)imidazo[1,2-a]quinoxalin-4-amine]", "IC50": 2.01},
      {"smiles": "CC(C)CNc1nc2ccccc2n2c(-c3cccnc3F)cnc12", "note": "[Example 1-14, 1-(2-fluoropyridin-3-yl)-N-(2-methylpropyl)imidazo[1,2-a]quinoxalin-4-amine]", "IC50": 9.73},
      {"smiles": "CC(C)CNc1nc2ccccc2n2c(-c3ccc(C(N)=O)cc3)cnc12", "note": "[Example 1-15, 4-{4-[(2-methylpropyl)amino]imidazo[1,2-a]quinoxalin-1-yl}benzamide]", "IC50": 0.399},
      {"smiles": "CC(C)CNc1nc2ccccc2n2c(-c3ccc(C(=O)N4CCCC4)cc3)cnc12", "note": "[Example 1-16, (4-{4-[(2-methylpropyl)amino]imidazo[1,2-a]quinoxalin-1-yl}phenyl)(pyrrolidin-1-yl)methanone]", "IC50": 3.67},
      {"smiles": "CNC(=O)c1ccc(-c2cnc3c(NCC(C)C)nc4ccccc4n23)cc1", "note": "[Example 1-17, N-methyl-4-{4-[(2-methylpropyl)amino]imidazo[1,2-a]quinoxalin-1-yl}benzamide]", "IC50": 0.192},
      {"smiles": "CC(C)CNc1nc2ccccc2n2c(-c3cnn(C)c3)cnc12", "note": "[Example 1-18, N-(2-methylpropyl)-1-(1-methyl-1H-pyrazol-4-yl)imidazo[1,2-a]quinoxalin-4-amine]", "IC50": 12.1},
      {"smiles": "CC(C)CNc1nc2ccccc2n2c(-c3cccc4cnccc34)cnc12", "note": "[Example 1-19, 1-(isoquinolin-5-yl)-N-(2-methylpropyl)imidazo[1,2-a]quinoxalin-4-amine]", "IC50": 11.8},
      {"smiles": "CNC(=O)c1cccc(-c2cnc3c(NCC(C)C)nc4ccccc4n23)c1", "note": "[Example 1-20, N-methyl-3-{4-[(2-methylpropyl)amino]imidazo[1,2-a]quinoxalin-1-yl}benzamide]", "IC50": 17.4},
      {"smiles": "CC(C)CNc1nc2ccccc2n2c(-c3cccs3)cnc12", "note": "[Example 1-21, N-(2-methylpropyl)-1-(thiophen-2-yl)imidazo[1,2-a]quinoxalin-4-amine]", "IC50": 3.31},
      {"smiles": "CC(C)CNc1nc2ccccc2n2c(-c3ccsc3)cnc12", "note": "[Example 1-22, N-(2-methylpropyl)-1-(thiophen-3-yl)imidazo[1,2-a]quinoxalin-4-amine]", "IC50": 5.14},
      {"smiles": "CC(C)CNc1nc2ccccc2n2c(-c3ccccc3C(F)(F)F)cnc12", "note": "[Example 1-23, N-(2-methylpropyl)-1-[2-(trifluoromethyl)phenyl]imidazo[1,2-a]quinoxalin-4-amine]", "IC50": 7.71},
      {"smiles": "CC(=O)c1ccc(-c2cnc3c(NCC(C)C)nc4ccccc4n23)cc1", "note": "[Example 1-24, 1-(4-{4-[(2-methylpropyl)amino]imidazo[1,2-a]quinoxalin-1-yl}phenyl)ethanone]", "IC50": 2.6},
      {"smiles": "COc1ccc(-c2cnc3c(NCC(C)C)nc4ccccc4n23)cc1OC", "note": "[Example 1-25, 1-(3,4-dimethoxyphenyl)-N-(2-methylpropyl)imidazo[1,2-a]quinoxalin-4-amine]", "IC50": 13.6},
      {"smiles": "CC(C)CNc1nc2ccccc2n2c(-c3ccccc3F)cnc12", "note": "[Example 1-26, 1-(2-fluorophenyl)-N-(2-methylpropyl)imidazo[1,2-a]quinoxalin-4-amine]", "IC50": 9.14},
      {"smiles": "CC(C)CNc1nc2ccccc2n2c(-c3ccc(CO)cc3)cnc12", "note": "[Example 1-27, (4-{4-[(2-methylpropyl)amino]imidazo[1,2-a]quinoxalin-1-yl}phenyl)methanol]", "IC50": 1.68}
    ]}
  ]
}
